The record followed here is patent US9682976B2, “Protein kinase C inhibitors and uses thereof” (Rigel Pharmaceuticals, Inc., priority 2012, dated 2017).

Broadly, the EC50 is the concentration giving half of the maximal effect. High values mean a less potent agent, low ones a more potent agent.

The test system of the experiment is PKC mediated IL-2 production. The experiment can be described thus: IL-2 ELISA, human primary T cell, anti CD3+CD28+. The conditions noted are these: Homo sapiens, T-cell, 24 h, human primary T cells stimulated with αCD3 and αCD28, 24 hours. It counts as cell-based. The method, boiled down:
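IL-2 was quantified by ELISA in 24 h supernatants from primary human T cells given a 1 h compound pre-treatment at 37° C. These cells had been expanded from blood mononuclear cells on αCD3/αCD28 with IL-2, and the IL-2 was removed by washing. Stimulation used plate-bound αCD3 ([…]) plus αCD28 (5 μg/ml); the counter assay used PMA (0.5 ng/ml) with ionomycin (0.1 uM) instead.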
`CC1(C)C[C@H](Nc2nc(Nc3cc(C#N)c(C4CC4)cc3F)ncc2Cl)C[C@@H]2CCCN21` [Compound 181, 5-((5-chloro-4-(((7R,8aS)-5,5-dimethyloctahydroindolizin-7-yl)amino)pyrimidin-2-yl)amino)-2-cyclopropyl-4-fluorobenzonitrile] gave an EC50 of 100 to 500 nM.

For `CC1(C)C[C@H](Nc2nc(Nc3ccc(Cl)c(-n4nnnc4C4CC4)c3)ncc2Cl)C[C@@H]2CCCN21` [Compound 182, 5-chloro-N2-(4-chloro-3-(5-cyclopropyl-1H-tetrazol-1-yl)phenyl)-N4-((7R,8aS)-5,5-dimethyloctahydroindolizin-7-yl)pyrimidine-2,4-diamine], the EC50 is < 100 nM.

Regarding `COc1cc(Nc2ncc(Cl)c(N[C@@H]3C[C@@H]4CCCN4C(C)(C)C3)n2)cc(OC)c1OC` [Compound 183, 5-chloro-N4-((7R,8aS)-5,5-dimethyloctahydroindolizin-7-yl)-N2-(3,4,5-trimethoxyphenyl)pyrimidine-2,4-diamine], the EC50 lay in the range of 1000 to 10000 nM.

As for `CCOC(=O)C(C)Oc1cc(F)c(Nc2ncc(F)c(N[C@@H]3C[C@@H]4CCCN4C(C)(C)C3)n2)cc1-n1nnn(C)c1=O` (stereo partly drawn) [Compound 184, ethyl 2-(4-((4-(((7R,8aS)-5,5-dimethyloctahydroindolizin-7-yl)amino)-5-fluoropyrimidin-2-yl)amino)-5-fluoro-2-(4-methyl-5-oxo-4,5-dihydro-1H-tetrazol-1-yl)phenoxy)propanoate], the EC50 was in the range of 100 to 500 nM.

For the molecule `Cn1nnn(-c2cc(Nc3ncc(F)c(N[C@@H]4C[C@@H]5CCCN5C(C)(C)C4)n3)c(F)cc2OC2CCOC2=O)c1=O` (stereo partly drawn) [Compound 185, 1-(5-((4-(((7R,8aS)-5,5-dimethyloctahydroindolizin-7-yl)amino)-5-fluoropyrimidin-2-yl)amino)-4-fluoro-2-((2-oxotetrahydrofuran-3-yl)oxy)phenyl)-4-methyl-1,4-dihydro-5H-tetrazol-5-one], the EC50 is > 10000 nM.

As for `Cn1nnn(-c2cc(Nc3ncc(F)c(N[C@@H]4C[C@@H]5CCCN5C(C)(C)C4)n3)c(F)cc2OC[C@H](O)CO)c1=O` [Compound 188, 1-(2-((R)-2,3-dihydroxypropoxy)-5-((4-(((7R,8aS)-5,5-dimethyloctahydroindolizin-7-yl)amino)-5-fluoropyrimidin-2-yl)amino)-4-fluorophenyl)-4-methyl-1,4-dihydro-5H-tetrazol-5-one], the EC50 lay in the range of 500 to 1000 nM.

In the case of `CC1(C)C[C@H](Nc2nc(Nc3ccc(OCCO)c(C#N)c3)ncc2F)C[C@@H]2CCCN21` [Compound 189, 5-((4-(((7R,8aS)-5,5-dimethyloctahydroindolizin-7-yl)amino)-5-fluoropyrimidin-2-yl)amino)-2-(2-hydroxyethoxy)benzonitrile], the EC50 fell in the range of 100 to 500 nM.

As for `COCCOCCOc1ccc(Nc2ncc(F)c(N[C@@H]3C[C@@H]4CCCN4C(C)(C)C3)n2)cc1C#N` [Compound 190, 5-((4-(((7R,8aS)-5,5-dimethyloctahydroindolizin-7-yl)amino)-5-fluoropyrimidin-2-yl)amino)-2-(2-(2-methoxyethoxy)ethoxy)benzonitrile], the EC50 lay within 100 to 500 nM.

Regarding `CC(=O)O[C@H]1[C@H](OC(C)=O)C(Oc2cc(F)c(Nc3ncc(F)c(N[C@@H]4C[C@@H]5CCCN5C(C)(C)C4)n3)cc2-n2nnn(C)c2=O)OC[C@H]1OC(C)=O` (stereo partly drawn) [Compound 191, (3S,4R,5R)-2-(4-((4-(((7R,8aS)-5,5-dimethyloctahydroindolizin-7-yl)amino)-5-fluoropyrimidin-2-yl)amino)-5-fluoro-2-(4-methyl-5-oxo-4,5-dihydro-1H-tetrazol-1-yl)phenoxy)tetrahydro-2H-pyran-3,4,5-triyl triacetate], the concentration giving a half-maximal response (EC50) was 1000 to 10000 nM.

On to `CN(C)CCOc1cc(F)c(Nc2ncc(F)c(N[C@@H]3C[C@@H]4CCCN4C(C)(C)C3)n2)cc1-n1nnn(C)c1=O` [Compound 192, 1-(2-(2-(dimethylamino)ethoxy)-5-((4-(((7R,8aS)-5,5-dimethyloctahydroindolizin-7-yl)amino)-5-fluoropyrimidin-2-yl)amino)-4-fluorophenyl)-4-methyl-1,4-dihydro-5H-tetrazol-5-one], for which the EC50 is 100 to 500 nM.

Consider `CN(C)CCOc1cc(F)c(N(CCN(C)C)c2ncc(F)c(N[C@@H]3C[C@@H]4CCCN4C(C)(C)C3)n2)cc1-n1nnn(C)c1=O` [Compound 193, 1-(2-(2-(dimethylamino)ethoxy)-5-((2-(dimethylamino)ethyl)(4-(((7R,8aS)-5,5-dimethyloctahydroindolizin-7-yl)amino)-5-fluoropyrimidin-2-yl)amino)-4-fluorophenyl)-4-methyl-1,4-dihydro-5H-tetrazol-5-one], for which the concentration for a half-maximal effect (EC50) lay in the range of 100 to 500 nM.

Molecule `CCN(CC)CCOc1cc(F)c(Nc2ncc(F)c(N[C@@H]3C[C@@H]4CCCN4C(C)(C)C3)n2)cc1-n1nnn(C)c1=O` [Compound 194, 1-(2-(2-(diethylamino)ethoxy)-5-((4-(((7R,8aS)-5,5-dimethyloctahydroindolizin-7-yl)amino)-5-fluoropyrimidin-2-yl)amino)-4-fluorophenyl)-4-methyl-1,4-dihydro-5H-tetrazol-5-one] gave an EC50 of 100 to 500 nM.

`Cn1nnn(-c2cc(Nc3ncc(F)c(N[C@@H]4C[C@@H]5CCCN5C(C)(C)C4)n3)c(F)cc2OCCN2CCOCC2)c1=O` [Compound 195, 1-(5-((4-(((7R,8aS)-5,5-dimethyloctahydroindolizin-7-yl)amino)-5-fluoropyrimidin-2-yl)amino)-4-fluoro-2-(2-morpholinoethoxy)phenyl)-4-methyl-1,4-dihydro-5H-tetrazol-5-one] had a 50% effective concentration (EC50) of 500 to 1000 nM.

For `CC1(C)C[C@H](Nc2nc(Nc3ccc(O)c(-n4cnnn4)c3)ncc2F)C[C@@H]2CCCN21` [Compound 196, 4-((4-(((7R,8aS)-5,5-dimethyloctahydroindolizin-7-yl)amino)-5-fluoropyrimidin-2-yl)amino)-2-(1H-tetrazol-1-yl)phenol], the EC50 lay in the range of 100 to 500 nM.

`CC(=O)O[C@H]1[C@H](OC(C)=O)C(Oc2ccc(Nc3ncc(F)c(N[C@@H]4C[C@@H]5CCCN5C(C)(C)C4)n3)cc2C#N)OC[C@H]1OC(C)=O` (stereo partly drawn) [Compound 197, (3S,4R,5R)-2-(2-cyano-4-((4-(((7R,8aS)-5,5-dimethyloctahydroindolizin-7-yl)amino)-5-fluoropyrimidin-2-yl)amino)phenoxy)tetrahydro-2H-pyran-3,4,5-triyl triacetate] returned an EC50 of 100 to 500 nM.

The molecule `COCCOCCOc1cc(F)c(Nc2ncc(F)c(N[C@@H]3C[C@@H]4CCCN4C(C)(C)C3)n2)cc1-n1nnn(C)c1=O` [Compound 198, 1-(5-((4-(((7R,8aS)-5,5-dimethyloctahydroindolizin-7-yl)amino)-5-fluoropyrimidin-2-yl)amino)-4-fluoro-2-(2-(2-methoxyethoxy)ethoxy)phenyl)-4-methyl-1,4-dihydro-5H-tetrazol-5-one] gave an EC50 of 1000 to 10000 nM.

Regarding `Cn1nnn(-c2cc(Nc3ncc(F)c(N[C@@H]4C[C@@H]5CCCN5C(C)(C)C4)n3)c(F)cc2OCC(O)CO)c1=O` (stereo partly drawn) [Compound 199, 1-(2-(2,3-dihydroxypropoxy)-5-((4-(((7R,8aS)-5,5-dimethyloctahydroindolizin-7-yl)amino)-5-fluoropyrimidin-2-yl)amino)-4-fluorophenyl)-4-methyl-1,4-dihydro-5H-tetrazol-5-one], the EC50 lay in the range of 500 to 1000 nM.
